From the CheMixHub viscosity set

Assay: xn = mol fraction of the nth substance listed

COCCO + C1CCCCC1
viscosity [mPa·s], 101 kPa
Conditions | 298.15 K | 308.15 K
x1 = 0.054 | 0.905 | 0.75
x1 = 0.1506 | 0.923 | 0.757
x1 = 0.2513 | 0.95 | 0.773
x1 = 0.3532 | 0.989 | 0.797
x1 = 0.4508 | 1.037 | 0.829
x1 = 0.4955 | 1.062 | 0.847
x1 = 0.5513 | 1.098 | 0.873
x1 = 0.649 | 1.172 | 0.926
x1 = 0.7493 | 1.264 | 0.994
x1 = 0.8496 | 1.377 | 1.079
x1 = 0.9529 | 1.518 | 1.185

COCCO + CCC(C)=O
viscosity [mPa·s]
Conditions | 298.15 K | 308.15 K | 318.15 K
101 kPa, x2 = 0.1049 | 1.321 | – | –
101 kPa, x2 = 0.2087 | 1.113 | – | –
101 kPa, x2 = 0.3115 | 0.937 | – | –
101 kPa, x2 = 0.413 | 0.78 | – | –
101 kPa, x2 = 0.5135 | 0.64 | – | –
101 kPa, x2 = 0.6128 | 0.525 | – | –
101 kPa, x2 = 0.7112 | 0.464 | – | –
101 kPa, x2 = 0.8085 | 0.43 | – | –
101 kPa, x2 = 0.9047 | 0.41 | – | –
101.33 kPa, x1 = 0.1014 | 0.423 | 0.378 | 0.339
101.33 kPa, x1 = 0.2118 | 0.474 | 0.419 | 0.373
101.33 kPa, x1 = 0.3001 | 0.53 | 0.469 | 0.418
101.33 kPa, x1 = 0.3864 | 0.591 | 0.521 | 0.463
101.33 kPa, x1 = 0.4984 | 0.695 | 0.607 | 0.534
101.33 kPa, x1 = 0.601 | 0.805 | 0.696 | 0.607
101.33 kPa, x1 = 0.695 | 0.938 | 0.802 | 0.692
101.33 kPa, x1 = 0.8004 | 1.12 | 0.945 | 0.803
101.33 kPa, x1 = 0.9019 | 1.334 | 1.108 | 0.931

COCCO + CC(C)O
303.15 K, 101.3 kPa
Conditions | viscosity [mPa·s]
x1 = 0.0989 | 1.54
x1 = 0.1681 | 1.426
x1 = 0.3537 | 1.24
x1 = 0.388 | 1.222
x1 = 0.5422 | 1.196
x1 = 0.5877 | 1.202
x1 = 0.7821 | 1.268
x1 = 0.8235 | 1.288
x1 = 0.8851 | 1.324

CCOC(=O)C(=O)OCC + ClC(Cl)Cl
303.15 K, 101 kPa
Conditions | viscosity [mPa·s]
x1 = 0.0624 | 0.606
x1 = 0.1302 | 0.712
x1 = 0.2043 | 0.825
x1 = 0.2854 | 0.942
x1 = 0.3747 | 1.051
x1 = 0.473 | 1.157
x1 = 0.5831 | 1.28
x1 = 0.7057 | 1.399
x1 = 0.8436 | 1.539

C#CC(C)(C)O + O
viscosity [mPa·s], 101.32 kPa
Conditions | x1 = 0.1001 | x1 = 0.2003 | x1 = 0.3009 | x1 = 0.4001 | x1 = 0.5004 | x1 = 0.602 | x1 = 0.7044 | x1 = 0.8017 | x1 = 0.9005
308.15 K | 1.612 | 2.02 | 2.2 | 2.289 | 2.308 | 2.297 | 2.254 | 2.21 | 2.152
313.15 K | 1.403 | 1.78 | 1.92 | 1.973 | 1.986 | 1.968 | 1.928 | 1.898 | 1.838
318.15 K | 1.24 | 1.56 | 1.67 | 1.7 | 1.719 | 1.712 | 1.669 | 1.643 | 1.582
323.15 K | 1.105 | 1.369 | 1.45 | 1.483 | 1.498 | 1.486 | 1.449 | 1.424 | 1.376

CCOC(=O)C(=O)OCC + CCO
viscosity [mPa·s]
Conditions | 303.15 K | 313.15 K | 323.15 K
101 kPa, x1 = 0.1003 | 0.935 | 0.799 | 0.667
101 kPa, x1 = 0.2024 | 0.948 | 0.809 | 0.68
101 kPa, x1 = 0.3028 | 0.988 | 0.836 | 0.711
101 kPa, x1 = 0.4015 | 1.045 | 0.879 | 0.751
101 kPa, x1 = 0.4917 | 1.108 | 0.93 | 0.793
101 kPa, x1 = 0.5907 | 1.177 | 0.99 | 0.845
101 kPa, x1 = 0.6942 | 1.259 | 1.063 | 0.909
101 kPa, x1 = 0.8049 | 1.362 | 1.151 | 0.987
101 kPa, x1 = 0.903 | 1.484 | 1.233 | 1.061
101.33 kPa, x1 = 0.1001 | 0.948 | – | –
101.33 kPa, x1 = 0.2004 | 0.968 | – | –
101.33 kPa, x1 = 0.2897 | 1.009 | – | –
101.33 kPa, x1 = 0.398 | 1.069 | – | –
101.33 kPa, x1 = 0.5098 | 1.146 | – | –
101.33 kPa, x1 = 0.5982 | 1.213 | – | –
101.33 kPa, x1 = 0.6828 | 1.283 | – | –
101.33 kPa, x1 = 0.77 | 1.371 | – | –
101.33 kPa, x1 = 0.8931 | 1.515 | – | –

CCCCBr + CCC(C)O
viscosity [mPa·s], 101.33 kPa
Conditions | x2 = 0.11 | x2 = 0.208 | x2 = 0.3145 | x2 = 0.3968 | x2 = 0.4998 | x2 = 0.6057 | x2 = 0.7046 | x2 = 0.786 | x2 = 0.8988
298.15 K | 0.613 | 0.642 | 0.689 | 0.742 | 0.833 | 0.975 | 1.176 | 1.428 | 2.018
308.15 K | 0.538 | 0.552 | 0.581 | 0.614 | 0.675 | 0.77 | 0.905 | 1.075 | 1.461
318.15 K | 0.483 | 0.492 | 0.512 | 0.537 | 0.579 | 0.653 | 0.741 | 0.855 | 1.111

CCCC(C)O (stereo not given) + CN(C)C=O
viscosity [mPa·s], 101 kPa
Conditions | x2 = 0.109 | x2 = 0.1534 | x2 = 0.2404 | x2 = 0.345 | x2 = 0.4412 | x2 = 0.5603 | x2 = 0.6548 | x2 = 0.7436 | x2 = 0.8432 | x2 = 0.9376
298.15 K | 2.69 | 2.51 | 2.26 | 2.01 | 1.82 | 1.59 | 1.41 | 1.25 | 1.07 | 0.91
303.15 K | 2.23 | 2.05 | 1.84 | 1.65 | 1.51 | 1.33 | 1.21 | 1.08 | 0.96 | 0.84
308.15 K | 1.83 | 1.68 | 1.49 | 1.35 | 1.24 | 1.13 | 1.04 | 0.95 | 0.86 | 0.78
313.15 K | 1.54 | 1.4 | 1.24 | 1.13 | 1.05 | 0.97 | 0.91 | 0.86 | 0.79 | 0.72
